Experimental data published in publication PMC3914206.

Key:
Format in all cases: binding
panel of 442 kinases [1] = target: T1, panel of 442 kinases (Homo sapiens, UniProt Q92918); conditions: Compound Concentration 10 µM
T1 construct: purchased KINOMEscan
Text: (§1) We assessed the selectivity of members of this scaffold using the KINOMEscan methodology across a near comprehensive panel of 442 kinases [[18,27]].

panel of 442 kinases [2] = target: T2, panel of 442 kinases (Homo sapiens, UniProt P42681); conditions: kinase TXK; compound concentration 10 µM
T2 construct: purchased KINOMEscan
T2 sequence (P42681 1-527): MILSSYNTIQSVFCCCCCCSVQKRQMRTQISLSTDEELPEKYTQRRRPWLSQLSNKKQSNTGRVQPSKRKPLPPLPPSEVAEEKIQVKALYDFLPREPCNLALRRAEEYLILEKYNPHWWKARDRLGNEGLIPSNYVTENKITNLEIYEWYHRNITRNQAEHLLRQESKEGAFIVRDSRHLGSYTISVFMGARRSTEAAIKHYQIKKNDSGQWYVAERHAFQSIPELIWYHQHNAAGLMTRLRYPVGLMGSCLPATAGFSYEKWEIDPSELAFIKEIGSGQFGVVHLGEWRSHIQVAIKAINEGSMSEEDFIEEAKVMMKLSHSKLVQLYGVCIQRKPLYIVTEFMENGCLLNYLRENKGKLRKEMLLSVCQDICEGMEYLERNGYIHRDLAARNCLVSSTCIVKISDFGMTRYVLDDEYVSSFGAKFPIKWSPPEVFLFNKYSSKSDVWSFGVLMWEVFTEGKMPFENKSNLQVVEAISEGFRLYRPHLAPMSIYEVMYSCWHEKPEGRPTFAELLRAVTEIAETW
Text: as §1

panel of 442 kinases [3] = target: T3, panel of 442 kinases (Homo sapiens, UniProt P08631); conditions: Compound Concentration 10 µM
T3 construct: purchased KINOMEscan
Text: as §1

T3 sequence (P08631 whole entry): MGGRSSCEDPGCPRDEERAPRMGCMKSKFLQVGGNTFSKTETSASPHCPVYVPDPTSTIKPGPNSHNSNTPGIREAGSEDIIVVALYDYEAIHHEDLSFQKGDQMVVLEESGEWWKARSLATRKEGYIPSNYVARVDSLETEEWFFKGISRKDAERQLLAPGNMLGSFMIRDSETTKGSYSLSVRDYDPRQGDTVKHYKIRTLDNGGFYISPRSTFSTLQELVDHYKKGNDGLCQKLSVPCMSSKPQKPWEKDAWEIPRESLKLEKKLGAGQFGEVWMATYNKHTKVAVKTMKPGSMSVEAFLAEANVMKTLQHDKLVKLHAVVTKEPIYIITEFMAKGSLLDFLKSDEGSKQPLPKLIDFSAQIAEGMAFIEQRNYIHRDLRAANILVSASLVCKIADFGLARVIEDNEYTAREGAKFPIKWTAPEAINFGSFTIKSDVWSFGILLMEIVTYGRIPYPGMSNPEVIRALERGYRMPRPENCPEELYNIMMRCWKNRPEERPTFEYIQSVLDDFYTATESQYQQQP
T1 sequence (Q92918 whole entry): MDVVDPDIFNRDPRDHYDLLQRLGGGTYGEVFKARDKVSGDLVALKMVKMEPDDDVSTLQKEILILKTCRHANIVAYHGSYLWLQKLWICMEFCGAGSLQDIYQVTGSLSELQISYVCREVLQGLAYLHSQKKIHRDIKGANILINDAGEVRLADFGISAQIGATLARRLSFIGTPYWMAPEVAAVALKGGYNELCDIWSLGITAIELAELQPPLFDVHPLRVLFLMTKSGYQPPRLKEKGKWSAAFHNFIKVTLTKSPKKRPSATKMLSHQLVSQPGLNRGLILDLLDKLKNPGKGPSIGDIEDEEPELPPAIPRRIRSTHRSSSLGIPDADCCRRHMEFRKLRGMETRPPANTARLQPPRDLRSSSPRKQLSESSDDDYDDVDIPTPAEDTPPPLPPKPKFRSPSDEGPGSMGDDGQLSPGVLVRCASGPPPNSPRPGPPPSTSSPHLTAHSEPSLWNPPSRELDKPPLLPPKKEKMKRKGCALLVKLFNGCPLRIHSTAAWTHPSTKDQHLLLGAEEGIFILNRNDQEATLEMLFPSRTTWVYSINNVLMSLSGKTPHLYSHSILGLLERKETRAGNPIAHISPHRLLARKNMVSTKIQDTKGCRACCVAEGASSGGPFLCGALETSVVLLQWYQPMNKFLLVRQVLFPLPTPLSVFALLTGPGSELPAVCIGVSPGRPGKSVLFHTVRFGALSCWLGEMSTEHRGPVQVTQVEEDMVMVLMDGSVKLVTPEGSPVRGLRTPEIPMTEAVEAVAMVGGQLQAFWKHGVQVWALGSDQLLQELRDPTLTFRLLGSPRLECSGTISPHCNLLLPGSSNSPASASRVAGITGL

SMILES | KINOMEscan: HPK1 (panel of 442 kinases [1]) | % Ctrl, TXK (panel of 442 kinases [2]) | KINOMEscan: HCK (panel of 442 kinases [3])
COc1cc(C(=O)N2CCC(N3CCN(C)CC3)CC2)ccc1Nc1ncc2c(n1)N(C)c1ccccc1C(=O)N2C [15 (LRRK2-IN-1)] | 100 | 91 % Ctrl | 100
COc1cc(C(=O)N2CCC(N3CCN(C)CC3)CC2)ccc1Nc1ncc2c(n1)N1CCc3cccc(c31)C(=O)N2C [Compound 24] |  | 93 % Ctrl | 
COc1cc(C(=O)N2CCC(N3CCN(C)CC3)CC2)ccc1Nc1ncc2c(n1)N(C1CCCC1)c1ccccc1C(=O)N2C [Compound 25, 11-cyclopentyl-2-((2-methoxy-4-(4-(4-methylpiperazin-1-yl)piperidine-1-carbonyl)phenyl)amino)-5-methyl-5H-benzo[e]pyrimido[5,4-b][1,4]diazepin-6(11H)-one] | 89 | 95 % Ctrl | 97
CCOc1cc(C(=O)N2CCC(N3CCN(C)CC3)CC2)ccc1Nc1ncc2c(n1)N(C1CCCC1)c1ccccc1C(=O)N2C [Compound 26] | 94 | 100 % Ctrl | 100
